Tests used:
HSV-2 = experiment: Virus inactivation assay, HSV-2; format: cell-based; settings: for Virus-inactivating activity: viral plaques with compound-treated virus relative to mock-treated controls: 15 min at 37° C.
Method: Approximately 10^5 plaque-forming units of HSV-1 KOS321 or HSV-2 333 stain and specific concentrations of the test compound in 200 μL of serum-free EMEM were mixed and incubated at 37° C. for 15 min. The mixtures were diluted to the non-inhibitory concentrations of the test compound, and then subjected to the infectious titer determination as described under the viral plaque number-reduction assay. In case of RSV, the assay was carried out in similar manner using DMEM supplemented with 2% heat-inactivated fetal calf serum instead of EMEM. To evaluate the effect of a low pH value or the presence of cervical secretions; the virus (HSV-2 333) and compounds were diluted in a low pH buffer (4.5) or cervical secretions were added to the compound dilutions before mixing with the virus (HSV-2 333). The cervical secretions were prepared from cervical swabs generated from 3 different individuals. The swabs were rinsed with distilled water and centrifuged at 5000×g for 10 min. The supernatant was kept at −20° C. In the case of RSV, the assay was carried out in a similar manner using DMEM supplemented with 2% heat-inactivated fetal calf serum instead of EMEM.

HSV-1 = experiment: Viral plaque number-reduction assay, HSV-1; settings: GMK AH1 cells
Method: (§1) African green monkey kidney (GMK AH1) cells^46 were cultured in Eagle's minimum essential medium (EMEM) supplemented with 2% calf serum, 0.05% Primaton RL substance (Kraft Inc., Norwich, USA) and antibiotics. Human epidermoid carcinoma (HEp-2) cells were cultured in Dulbecco's modified EMEM (DMEM) supplemented with 10% fetal calf serum and antibiotics. […] The RSV strain A-2^50 was used. The RSV stock was prepared as described by Hallak et al.^51 and stored at −70° C. in the presence of 40% sucrose^52.
(§2) The viral infectivity (the plaque number-reduction) assay and the plaque size-reduction assay were carried out as described previously^17. […] Subsequently, the cells were washed with 2 mL of EMEM and overlaid with 1% methylcellulose solution in EMEM. The plaques were visualized by staining with crystal violet solution after 2 (HSV-2) or 3 (HSV-1) days of incubation at 37° C. […] When the compounds were screened for anti-HSV or anti-RSV activity, mixtures of 200 PFU of the virus and the test compound (100 μg/mL) in serum-free EMEM were incubated for 10 min at room temperature before addition to cells and during the entire period of viral infection of cells and the development of viral plaques. In the plaque size-reduction assay, the compounds were added to cells (in methylcellulose overlay medium) after 2 h period of virus infection of cells in the absence of the inhibitor. After 2-3 days of incubation at 37° C., the viral plaques were visualized by staining the cells with 1% solution of crystal violet. For each compound tested, the images of twenty neighboring plaques were captured using a Leica DC300 digital camera attached to a Leitz-Wetzlar Diavert microscope. The area of each plaque was determined using IM500 image software (Leica). Similar protocols were used for RSV, except that the assays were performed in HEp-2 cells and DMEM supplemented with 2% heat-inactivated fetal calf serum was used instead of EMEM.

RSV = experiment: Anti-RSV screening assay (viral plaques); format: cell-based; settings: 100 μg/mL, viral plaques relative to mock treated controls
Method: as §1, §2

Row | SMILES | Virus-inactivating activity: viral plaques with compound-treated virus relative to mock-treated controls (HSV-2; HSV-2, 1 μg/ml) | Virus-inactivating activity: viral plaques with compound-treated virus relative to mock-treated controls (HSV-2; HSV-2, 10 μg/ml) | Virus-inactivating activity: viral plaques with compound-treated virus relative to mock-treated controls (HSV-2; HSV-2, 100 μg/ml) | Selective index CC50/IC50 HSV-1 (HSV-1) | Residual infectivity (%) RSV (RSV) | Virus-inactivating activity in the presence of human cervical secretions: viral plaques relative to mock-treated controls (HSV-2; HSV-2, cervical secretions diluted 1:2.2, 1 μg/ml) | Virus-inactivating activity in the presence of human cervical secretions: viral plaques relative to mock-treated controls (HSV-2; HSV-2, cervical secretions diluted 1:2.2, 10 μg/ml) | Virus-inactivating activity in the presence of human cervical secretions: viral plaques relative to mock-treated controls (HSV-2; HSV-2, cervical secretions diluted 1:2.2, 100 μg/ml) | Virus-inactivating activity at low pH: viral plaques relative to mock-treated controls (HSV-2; HSV-2, pH 4.5, 1 μg/ml) | Virus-inactivating activity at low pH: viral plaques relative to mock-treated controls (HSV-2; HSV-2, pH 4.5, 10 μg/ml) | Virus-inactivating activity at low pH: viral plaques relative to mock-treated controls (HSV-2; HSV-2, pH 4.5, 100 μg/ml)
1 | CCCCCCCCCCCCOC1OC(COS(=O)(=O)O)C(OS(=O)(=O)O)C(OS(=O)(=O)O)C1OC1OC(COS(=O)(=O)O)C(OS(=O)(=O)O)C(OC2OC(COS(=O)(=O)O)C(OS(=O)(=O)O)C(OC3OC(COS(=O)(=O)O)C(OS(=O)(=O)O)C(OC4OC(COS(=O)(=O)O)C(OS(=O)(=O)O)C(OS(=O)(=O)O)C4OS(=O)(=O)O)C3OS(=O)(=O)O)C2OS(=O)(=O)O)C1OS(=O)(=O)O [Compound 4, Dodecyl 2,3,4,6-tetra-O-sodium sulfonato-α-D-mannopyranosyl-(1→3)-2,4,6-tri-O-sodium sulfonato-α-D-mannopyranosyl-(1→3)-2,4,6-tri-O-sodium sulfonato-α-D-mannopyranosyl-(1→3)-2,4,6-tri-O-sodium sulfonato-α-D-mannopyranosyl-(1→2)-3,4,6-tri-O-sodium sulfonato-α-D-mannopyranoside] | 98.6% | 97.5% | 68.1% | > 190 | 0% |  |  |  |  |  | 
2 | CC(C)CCCC(C)C1CCC2C3CCC4CC(OC5OC(COS(=O)(=O)O)C(OS(=O)(=O)O)C(OS(=O)(=O)O)C5OC5OC(COS(=O)(=O)O)C(OS(=O)(=O)O)C(OC6OC(COS(=O)(=O)O)C(OS(=O)(=O)O)C(OC7OC(COS(=O)(=O)O)C(OS(=O)(=O)O)C(OS(=O)(=O)O)C7OS(=O)(=O)O)C6OS(=O)(=O)O)C5OS(=O)(=O)O)CCC4(C)C3CCC12C [Compound 20, 3β-Cholestanyl 2,3,4,6-tetra-O-sodium sulfonato-α-D-mannopyranosyl-(1→3)-2,4,6-tri-O-sodium sulfonato-α-D-mannopyranosyl-(1→3)-2,4,6-tri-O-sodium sulfonato-α-D-mannopyranosyl-(1→2)-3,4,6-tri-O-sodium sulfonato-α-D-mannopyranoside] | 120.3% | 0.3% | 0% | 52 | 0% | 82.6% | 78.5% | 0.3% | 93.7% | 6.8% | 0.0%

— US20150065440A1 (Progen Pharmaceuticals Limited, priority 2007, published 2015)
